Each compound was assayed on native tau aggregates (assay: TAU radioligand in vitro displacement assay ([3H]T808, autoradiography on human AD brain sections)). Details: compound 10 nM, radioligand [3H]T808 10 nM.
Format: binding
Source text: TAU Radioligand-In-Vitro Displacement Assay
This in vitro binding assay assesses the affinity of compounds for native tau aggregates.
AD human brains are purchased from Banner Sun Health Research Institute (Sun City, Ariz., USA). Pathological diagnosis of AD is made according to standard NIA-Reagan Institute criteria based on neuropathological data. The radioligand [^3H]T808 was synthesized in-house ([^3H]-2-[4-(2-Fluoro-ethyl)-piperidin-1-yl]-benzo[4,5]imidazo[1,2-a]pyrimidine, radiochemical purity 99.0%). As a reference cold T808 is used (2-[4-(2-Fluoro-ethyl)-piperidin-1-yl]-benzo[4,5]imidazo[1,2-a]pyrimidine). For the autoradiography FujiFilm Imaging Plates (BAS-IP TR 2025) are exposed to the sections and read with a FujiFilm IP reader (BAS-5000).
Ten μm thick human AD brain sections are generated with a cryostat (Leica CM3050) at −17° C. chamber temperature and −15° C. object temperature. Sections are transferred to Histobond+ microscope slides (Marienfeld Laboratory Glasware). After drying for 3 hours at room temperature the sections are stored at −20° C. The sections are incubated with the radioligand (10 nM) and the respective cold compound (at various concentrations) in 50 mM Tris buffer, pH 7.4 at room temperature for 30 min. After washing 3× 10 min at 4° C. in 50 mM Tris buffer, pH 7.4 and 3 quick dips in H2O dist. at 4° C. the sections are dried at 4° C. for 3 h. The sections are placed in a FujiFilm Cassette (BAS 2025), exposed with an Imaging Plate for five days and afterwards scanned with a resolution of […].
The signal intensity (Dens−PSL/mm2) in the region of interest (ROI) of the autoradiogram is quantified with the software MCID analysis (version 7.0, Imaging Research Inc.). The specific binding (SB) of [^3H]T808 binding in absence or in presence of a compound is calculated by subtracting the non-specific binding signal in the white matter, thus yielding SB[3H]T808 only and SBcompound. The % displacement by the various compounds is calculated as following: % displacement=100−(SBcompound/SB[3H]T808 only)*100. Validation Data
In each experiment cold T808 is used as a positive internal control. Co-incubation of equimolar amounts of hot and cold T808 is expected to reduce specific binding by approximately 50%.

SMILES	% displacement of [3H]T808 (10 nM) at 10 nM [%]
Oc1ccc(-c2cn3ccc(N4CCC4)cc3n2)cc1 [Example 40, 4-(7-Azetidin-1-yl-imidazo[1,2-a]pyridin-2-yl)-phenol]	37
CN(C)c1ccc(-c2cn3ccc(N4CCC(F)CC4)cc3n2)cc1 [Example 41, {4-[7-(4-Fluoro-piperidin-1-yl)-imidazo[1,2-a]pyridin-2-yl]-phenyl}-dimethyl-amine]	18
F[C@@H]1CCN(c2ccn3cc(-c4ccccc4)nc3c2)C1 [Example 42, 7-((R)-3-Fluoro-pyrrolidin-1-yl)-2-phenyl-imidazo[1,2-a]pyridine]	23
CO[C@@H]1CCN(c2ccn3cc(-c4ccccc4)nc3c2)C1 [Example 43, 7-((R)-3-Methoxy-pyrrolidin-1-yl)-2-phenyl-imidazo[1,2-a]pyridine]	15
CNc1ccn2cc(-c3cccc(OC)c3)nc2c1 [Example 44, [2-(3-Methoxy-phenyl)-imidazo[1,2-a]pyridin-7-yl]-methyl-amine]	29
CNc1ccn2cc(-c3ccc(OCF)cc3)nc2c1 [Example 45, [2-(4-Fluoromethoxy-phenyl)-imidazo[1,2-a]pyridin-7-yl]-methyl-amine]	45
Cc1ccc(-c2cn3ccc(NCCF)cc3n2)cc1 [Example 46, (2-Fluoro-ethyl)-(2-p-tolyl-imidazo[1,2-a]pyridin-7-yl)-amine]	27
Cc1cccc(-c2cn3ccc(NCCF)cc3n2)c1 [Example 47, (2-Fluoro-ethyl)-(2-m-tolyl-imidazo[1,2-a]pyridin-7-yl)-amine]	36
CO[C@H]1CCN(c2ccn3cc(-c4cccc(C)c4)nc3c2)C1 [Example 48, 7-((S)-3-Methoxy-pyrrolidin-1-yl)-2-m-tolyl-imidazo[1,2-a]pyridine]	8
FCOc1ccc(-c2cn3ccc(N4CCOCC4)cc3n2)cc1 [Example 49, 2-(4-Fluoromethoxy-phenyl)-7-morpholin-4-yl-imidazo[1,2-a]pyridine]	10
FCCNc1ccn2cc(-c3ccc(OCF)cc3)nc2c1 [Example 50, (2-Fluoro-ethyl)-[2-(4-fluoromethoxy-phenyl)-imidazo[1,2-a]pyridin-7-yl]-amine]	20
FCCNc1ccn2cc(-c3ccc4c(c3)OCO4)nc2c1 [Example 51, (2-Benzo[1,3]dioxol-5-yl-imidazo[1,2-a]pyridin-7-yl)-(2-fluoro-ethyl)-amine]	35
Cc1ccc(-c2cn3ccc(N(C)C)cc3n2)cc1C [Example 52, [2-(3,4-Dimethyl-phenyl)-imidazo[1,2-a]pyridin-7-yl]-dimethyl-amine]	27
CNc1ccn2cc(-c3ccc(C)c(C)c3)nc2c1 [Example 53, [2-(3,4-Dimethyl-phenyl)-imidazo[1,2-a]pyridin-7-yl]-methyl-amine]	25
Cc1ccc(-c2cn3ccc(N4CCC4)cc3n2)cc1 [Example 54, 7-Azetidin-1-yl-2-p-tolyl-imidazo[1,2-a]pyridine]	30
Cc1cccc(-c2cn3ccc(N4CCC4)cc3n2)c1 [Example 55, 7-Azetidin-1-yl-2-m-tolyl-imidazo[1,2-a]pyridine]	27
CO[C@@H]1CCN(c2ccn3cc(-c4ccc(C)cc4)nc3c2)C1 [Example 56, 7-((R)-3-Methoxy-pyrrolidin-1-yl)-2-p-tolyl-imidazo[1,2-a]pyridine]	28
Cc1ccc(-c2cn3ccc(N4CCC(F)CC4)cc3n2)cc1 [Example 57, 7-(4-Fluoro-piperidin-1-yl)-2-p-tolyl-imidazo[1,2-a]pyridine]	20
FCCC1CCN(c2ccn3cc(-c4ccccc4)nc3c2)CC1 [Example 58, 7-[4-(2-Fluoro-ethyl)-piperidin-1-yl]-2-phenyl-imidazo[1,2-a]pyridine]	12
CO[C@H]1CCN(c2ccn3cc(-c4ccccc4)nc3c2)C1 [Example 59, 7-((S)-3-Methoxy-pyrrolidin-1-yl)-2-phenyl-imidazo[1,2-a]pyridine]	36

SMILES	% displacement of [3H]T808 (10 nM) at 10 nM [%]
COc1cccc(-c2cn3ccc(N4CCC(F)CC4)cc3n2)c1 [Example 60, 7-(4-Fluoro-piperidin-1-yl)-2-(3-methoxy-phenyl)-imidazo[1,2-a]pyridine]	14
COc1ccc(-c2cn3ccc(N(C)CCF)cc3n2)cc1 [Example 65, (2-Fluoro-ethyl)-[2-(4-methoxy-phenyl)-imidazo[1,2-a]pyridin-7-yl]-methyl-amine]	28
CNc1ccn2cc(-c3ccc(OC)c(OC)c3)nc2c1 [Example 66, [2-(3,4-Dimethoxy-phenyl)-imidazo[1,2-a]pyridin-7-yl]-methyl-amine]	40
COc1ccc(-c2cn3ccc(NC4CC4)cc3n2)cc1 [Example 67, Cyclopropyl-[2-(4-methoxy-phenyl)-imidazo[1,2-a]pyridin-7-yl]-amine]	34
FC1CCN(c2ccn3cc(-c4ccc5c(c4)OCO5)nc3c2)CC1 [Example 68, 2-Benzo[1,3]dioxol-5-yl-7-(4-fluoro-piperidin-1-yl)-imidazo[1,2-a]pyridine]	25
Cc1cccc(-c2cn3ccc(N4CCC(F)CC4)cc3n2)c1 [Example 69, 7-(4-Fluoro-piperidin-1-yl)-2-m-tolyl-imidazo[1,2-a]pyridine]	22
FCOc1ccc(-c2cn3ccc(N4CCC4)cc3n2)cc1 [Example 70, 7-Azetidin-1-yl-2-(4-fluoromethoxy-phenyl)-imidazo[1,2-a]pyridine]	32
CNc1ccn2cc(-c3ccc(SC)cc3)nc2c1 [Example 71, Methyl-[2-(4-methylsulfanyl-phenyl)-imidazo[1,2-a]pyridin-7-yl]-amine]	34
Cc1ccc(-c2cn3ccc(NCCF)cc3n2)cc1C [Example 72, [2-(3,4-Dimethyl-phenyl)-imidazo[1,2-a]pyridin-7-yl]-(2-fluoro-ethyl)-amine]	25
COc1ccc(-c2cn3ccc(NCCF)cc3n2)cc1OC [Example 73, [2-(3,4-Dimethoxy-phenyl)-imidazo[1,2-a]pyridin-7-yl]-(2-fluoro-ethyl)-amine]	21
CNc1ccn2cc(-c3ccc(OC)cc3)nc2c1 [Example 74, [2-(4-Methoxy-phenyl)-imidazo[1,2-a]pyridin-7-yl]-methyl-amine]	44
COc1ccc(-c2cn3ccc(NCCF)cc3n2)cc1 [Example 75, (2-Fluoro-ethyl)-[2-(4-methoxy-phenyl)-imidazo[1,2-a]pyridin-7-yl]-amine]	42
COc1cccc(-c2cn3ccc(NCCF)cc3n2)c1 [Example 76, (2-Fluoro-ethyl)-[2-(3-methoxy-phenyl)-imidazo[1,2-a]pyridin-7-yl]-amine]	31
COc1ccc(-c2cn3ccc(N4CCC(CCF)CC4)cc3n2)cc1 [Example 77, 7-[4-(2-Fluoro-ethyl)-piperidin-1-yl]-2-(4-methoxy-phenyl)-imidazo[1,2-a]pyridine]	27
CN(C)c1ccn2cc(-c3cccc(OCF)c3)nc2c1 [Example 78, [2-(3-Fluoromethoxy-phenyl)-imidazo[1,2-a]pyridin-7-yl]-dimethyl-amine]	53
CSc1ccc(-c2cn3ccc(NCCF)cc3n2)cc1 [Example 79, (2-Fluoro-ethyl)-[2-(4-methylsulfanyl-phenyl)-imidazo[1,2-a]pyridin-7-yl]-amine]	20
FCOc1ccc(-c2cn3ccc(NC4CC4)cc3n2)cc1 [Example 80, Cyclopropyl-[2-(4-fluoromethoxy-phenyl)-imidazo[1,2-a]pyridin-7-yl]-amine]	34
CNc1ccn2cc(-c3ccc(O)c(OC)c3)nc2c1 [Example 81, 2-Methoxy-4-(7-methylamino-imidazo[1,2-a]pyridin-2-yl)-phenol]	47
Br.CN(C)c1ccn2cc(-c3cccc(O)c3)nc2c1 [Example 82, 3-(7-Dimethylamino-imidazo[1,2-a]pyridin-2-yl)-phenol hydrobromide]	49

Reference: US11358962B2, “2-hetaryl imidazol[1,2-a]pyridine derivatives” (Hoffmann-La Roche Inc., priority 2013, dated 2022)
